Measured values published in paper PMC5218480 (PLoS ONE, 2017).

Tested on: MV-4-11 cells
Assay: Gene expression microarray analysis (Affymetrix PrimeView) and GSEA
Type: cell-based, human
Parameters: RFU PODN (11730768_x_at) / Fold change /veh PODN (11730768_x_at) / RFU LINC00158 (11744669_a_at) / Fold change /veh LINC00158 (11744669_a_at) / RFU DUSP10 (11751237_a_at) / Fold change /veh DUSP10 (11751237_a_at) / RFU ID3 (11757404_x_at) / Fold change /veh ID3 (11757404_x_at) / RFU PLEKHG5 (11737974_s_at) / Fold change /veh PLEKHG5 (11737974_s_at) / RFU LRRC4B (11730491_at) / Fold change /veh LRRC4B (11730491_at) / RFU GIMAP4 (11747438_a_at) / Fold change /veh GIMAP4 (11747438_a_at) / RFU KRT8 (11758183_x_at) / Fold change /veh KRT8 (11758183_x_at) / RFU CNN1 (11734310_a_at) / Fold change /veh CNN1 (11734310_a_at) / RFU VPS37D (11726825_at) / Fold change /veh VPS37D (11726825_at) / RFU C10orf10 (11716522_x_at) / Fold change /veh C10orf10 (11716522_x_at) / RFU KIR2DL2 /// KIR2DL4 /// KIR2DL5A /// KIR2DL5B /// KIR2DS1 /// KIR2DS2 /// KIR2DS3 /// KIR2DS4 /// KIR3DL3 /// KIR3DL3 /// KIR3DS1 (11738374_at) / Fold change /veh KIR2DL2 /// KIR2DL4 /// KIR2DL5A /// KIR2DL5B /// KIR2DS1 /// KIR2DS2 /// KIR2DS3 /// KIR2DS4 /// KIR3DL3 /// KIR3DL3 /// KIR3DS1 (11738374_at) / RFU C1QL1 (11718748_at) / Fold change /veh C1QL1 (11718748_at) / RFU TMPRSS4 (11747572_a_at) / Fold change /veh TMPRSS4 (11747572_a_at) / RFU HAMP (11756126_x_at) / Fold change /veh HAMP (11756126_x_at) / RFU RNFT2 (11725882_a_at) / Fold change /veh RNFT2 (11725882_a_at) / RFU NR4A2 (11747474_a_at) / Fold change /veh NR4A2 (11747474_a_at) / RFU ABCC12 (11746883_a_at) / Fold change /veh ABCC12 (11746883_a_at) / RFU TMEM136 (11760407_x_at) / Fold change /veh TMEM136 (11760407_x_at) / RFU CLDN22 /// WWC2 (11732394_at) / Fold change /veh CLDN22 /// WWC2 (11732394_at) / RFU HLA-DPB1 (11760878_x_at) / Fold change /veh HLA-DPB1 (11760878_x_at) / RFU SPINT1 (11716480_a_at) / Fold change /veh SPINT1 (11716480_a_at) / RFU GAP43 (11754022_s_at) / Fold change /veh GAP43 (11754022_s_at) / RFU A4GNT (11735810_at) / Fold change /veh A4GNT (11735810_at) / RFU PRB3 (11715151_x_at) / Fold change /veh PRB3 (11715151_x_at) / RFU TUBB4B (11761932_at) / Fold change /veh TUBB4B (11761932_at) / RFU CAPN14 (11732068_a_at) / Fold change /veh CAPN14 (11732068_a_at) / RFU TMCC2 (11721928_a_at) / Fold change /veh TMCC2 (11721928_a_at) / RFU IRGQ (11745062_a_at) / Fold change /veh IRGQ (11745062_a_at) / RFU FAM174B (11720279_a_at) / Fold change /veh FAM174B (11720279_a_at) / RFU TMPRSS4 (11748680_a_at) / Fold change /veh TMPRSS4 (11748680_a_at) / RFU FAM212B (11763350_a_at) / Fold change /veh FAM212B (11763350_a_at) / RFU PLEKHG5 (11743358_a_at) / Fold change /veh PLEKHG5 (11743358_a_at) / RFU ZSCAN30 (11745921_a_at) / Fold change /veh ZSCAN30 (11745921_a_at) / RFU CMKLR1 (11741424_a_at) / Fold change /veh CMKLR1 (11741424_a_at) / RFU LOC101060620 /// MAPK8IP1 (11723275_at) / Fold change /veh LOC101060620 /// MAPK8IP1 (11723275_at) / RFU SPTSSB (11747773_x_at) / Fold change /veh SPTSSB (11747773_x_at) / RFU PRSS12 (11739890_at) / Fold change /veh PRSS12 (11739890_at) / RFU BIN1 (11741810_x_at) / Fold change /veh BIN1 (11741810_x_at) / RFU WNT11 (11732464_a_at) / Fold change /veh WNT11 (11732464_a_at) / RFU C10orf10 (11716521_a_at) / Fold change /veh C10orf10 (11716521_a_at) / RFU C5orf56 (11738089_at) / Fold change /veh C5orf56 (11738089_at) / RFU CYB561 (11721691_x_at) / Fold change /veh CYB561 (11721691_x_at) / RFU ANKRD19P (11752326_a_at) / Fold change /veh ANKRD19P (11752326_a_at) / RFU OR2T12 /// OR2T33 /// OR2T8 (11738714_s_at) / Fold change /veh OR2T12 /// OR2T33 /// OR2T8 (11738714_s_at) / RFU VCAN (11748164_a_at) / Fold change /veh VCAN (11748164_a_at) / RFU JSRP1 (11732532_at) / Fold change /veh JSRP1 (11732532_at) / RFU KRTAP10-11 (11738290_x_at) / Fold change /veh KRTAP10-11 (11738290_x_at) / RFU MYO3A (11730013_a_at) / Fold change /veh MYO3A (11730013_a_at) / RFU EBF3 (11725865_a_at) / Fold change /veh EBF3 (11725865_a_at) / RFU CAMK2N1 (11719241_x_at) / Fold change /veh CAMK2N1 (11719241_x_at) / RFU C5orf56 (11738088_a_at) / Fold change /veh C5orf56 (11738088_a_at) / RFU OLFML3 (11715873_a_at) / Fold change /veh OLFML3 (11715873_a_at) / RFU LOC100653217 /// NTM (11731650_a_at) / Fold change /veh LOC100653217 /// NTM (11731650_a_at) / RFU MAPK11 (11762145_a_at) / Fold change /veh MAPK11 (11762145_a_at) / RFU FIZ1 (11724087_x_at) / Fold change /veh FIZ1 (11724087_x_at) / RFU OASL (11726364_x_at) / Fold change /veh OASL (11726364_x_at) / RFU SOX15 (11748057_x_at) / Fold change /veh SOX15 (11748057_x_at) / RFU CD79A (11719716_a_at) / Fold change /veh CD79A (11719716_a_at) / RFU HIST1H1D (11736915_at) / Fold change /veh HIST1H1D (11736915_at) / RFU CASKIN2 (11723855_a_at) / Fold change /veh CASKIN2 (11723855_a_at) / RFU LOC730098 (11760151_x_at) / Fold change /veh LOC730098 (11760151_x_at) / RFU OR4N2 (11742367_at) / Fold change /veh OR4N2 (11742367_at) / RFU PRRT2 (11749266_a_at) / Fold change /veh PRRT2 (11749266_a_at) / RFU SNX32 (11753110_a_at) / Fold change /veh SNX32 (11753110_a_at) / RFU CDHR5 (11726645_a_at) / Fold change /veh CDHR5 (11726645_a_at) / RFU RCAN1 (11760418_a_at) / Fold change /veh RCAN1 (11760418_a_at) / RFU FAM167A (11723789_a_at) / Fold change /veh FAM167A (11723789_a_at) / RFU FAM26E (11764081_at) / Fold change /veh FAM26E (11764081_at) / RFU ISYNA1 (11749810_s_at) / Fold change /veh ISYNA1 (11749810_s_at) / RFU ACY1 (11761880_at) / Fold change /veh ACY1 (11761880_at) / RFU 11764098_at / Fold change /veh 11764098_at / RFU SAMD14 (11745864_x_at) / Fold change /veh SAMD14 (11745864_x_at) / RFU NPB (11741838_a_at) / Fold change /veh NPB (11741838_a_at) / RFU TMPRSS6 (11731388_a_at) / Fold change /veh TMPRSS6 (11731388_a_at) / RFU KRTAP10-2 (11738614_at) / Fold change /veh KRTAP10-2 (11738614_at) / RFU ARHGAP8 /// PRR5-ARHGAP8 (11727945_x_at) / Fold change /veh ARHGAP8 /// PRR5-ARHGAP8 (11727945_x_at) / RFU KRTAP5-7 /// NADSYN1 (11734609_at) / Fold change /veh KRTAP5-7 /// NADSYN1 (11734609_at) / RFU RASL12 (11751679_a_at) / Fold change /veh RASL12 (11751679_a_at) / RFU CDKN2B (11736163_a_at) / Fold change /veh CDKN2B (11736163_a_at) / RFU PRF1 (11729649_at) / Fold change /veh PRF1 (11729649_at) / RFU, ZNF638 /// ZNF638-IT1 / Fold change vs veh, ZNF638 /// ZNF638-IT1 / RFU, PANK3 / Fold change vs veh, PANK3 / RFU, SH3YL1 / Fold change vs veh, SH3YL1 / RFU, ZEB2 / Fold change vs veh, ZEB2 / RFU, NRIP1 / Fold change vs veh, NRIP1 / RFU, PTTG1IP / Fold change vs veh, PTTG1IP / RFU, CAPN2 / Fold change vs veh, CAPN2 / RFU, MED14 / Fold change vs veh, MED14 / RFU, SNORA58 / Fold change vs veh, SNORA58 / RFU, C1orf63 / Fold change vs veh, C1orf63 / RFU, LRRFIP1 / Fold change vs veh, LRRFIP1 / RFU, NDUFAF7 / Fold change vs veh, NDUFAF7 / RFU, SLC12A2 / Fold change vs veh, SLC12A2 / RFU, IBTK / Fold change vs veh, IBTK / RFU, ESF1 / Fold change vs veh, ESF1 / Fold change vs veh, TMEM50B / RFU, TAOK1 / Fold change vs veh, TAOK1 / RFU, ACBD3 / Fold change vs veh, ACBD3 / RFU, TMA16 / Fold change vs veh, TMA16 / RFU, RWDD3 / Fold change vs veh, RWDD3 / RFU, BCAT1 / Fold change vs veh, BCAT1 / RFU, EDEM3 / Fold change vs veh, EDEM3 / RFU, TMEM33 / Fold change vs veh, TMEM33 / RFU, WDR75 / Fold change vs veh, WDR75 / RFU, AHCTF1 / Fold change vs veh, AHCTF1 / RFU, TFRC / Fold change vs veh, TFRC / RFU, ZDHHC17 / Fold change vs veh, ZDHHC17 / RFU, NOM1 / Fold change vs veh, NOM1 / RFU, ARL8B / Fold change vs veh, ARL8B / RFU, ZBTB11 / Fold change vs veh, ZBTB11 / RFU, TAMM41 / Fold change vs veh, TAMM41 / RFU, KIAA1704 /// LOC100996395 / Fold change vs veh, KIAA1704 /// LOC100996395 / RFU, ING1 / Fold change vs veh, ING1 / RFU, TRMT61B / Fold change vs veh, TRMT61B / RFU, FUBP3 / Fold change vs veh, FUBP3 / RFU, TP53 / Fold change vs veh, TP53 / RFU, TNKS2 / Fold change vs veh, TNKS2 / RFU, ZFP14 / Fold change vs veh, ZFP14 / RFU, ACTR2 / Fold change vs veh, ACTR2 / RFU, PPP3R1 / Fold change vs veh, PPP3R1 / RFU, PIK3R1 / Fold change vs veh, PIK3R1 / RFU, HNRNPA1 / Fold change vs veh, HNRNPA1 / RFU, RNF170 / Fold change vs veh, RNF170 / RFU, ZNF28 / Fold change vs veh, ZNF28 / RFU, RNGTT / Fold change vs veh, RNGTT / RFU, OGT / Fold change vs veh, OGT / RFU, BRD1 / Fold change vs veh, BRD1 / RFU, MARS / Fold change vs veh, MARS / RFU, ZNF655 / Fold change vs veh, ZNF655 / RFU, FAHD1 / Fold change vs veh, FAHD1 / RFU, BDP1 / Fold change vs veh, BDP1 / RFU, LRRCC1 / Fold change vs veh, LRRCC1 / RFU, ARID1A / Fold change vs veh, ARID1A / RFU, ZNF146 / Fold change vs veh, ZNF146 / RFU, ZNF330 / Fold change vs veh, ZNF330 / RFU, GPN3 / Fold change vs veh, GPN3 / RFU, C9orf123 / Fold change vs veh, C9orf123 / RFU, N4BP2L2 / Fold change vs veh, N4BP2L2 / RFU, ARFIP1 / Fold change vs veh, ARFIP1 / RFU, FAM179B / Fold change vs veh, FAM179B / RFU, BCL10 / Fold change vs veh, BCL10 / RFU, UHRF1BP1L / Fold change vs veh, UHRF1BP1L / RFU, BET1 / Fold change vs veh, BET1 / RFU, CNOT2 / Fold change vs veh, CNOT2 / RFU, ZNF268 / Fold change vs veh, ZNF268 / Fold change vs veh, ZNF507 / RFU, DGCR2 / Fold change vs veh, DGCR2 / RFU, WDSUB1 / Fold change vs veh, WDSUB1 / Fold change vs veh, HSP90B1 /// MIR3652 / RFU, ADSS / Fold change vs veh, ADSS / RFU, GK / Fold change vs veh, GK / RFU, ZNF148 / Fold change vs veh, ZNF148 / RFU, TAF9 / Fold change vs veh, TAF9 / RFU, SLC1A5 / Fold change vs veh, SLC1A5 / RFU, SLMO2 / Fold change vs veh, SLMO2 / RFU, ABCC4 / Fold change vs veh, ABCC4 / RFU, LOC101060439 /// RAP1B / Fold change vs veh, LOC101060439 /// RAP1B / RFU, RFX7 / Fold change vs veh, RFX7 / RFU, GTPBP10 / Fold change vs veh, GTPBP10 / RFU, CNEP1R1 / Fold change vs veh, CNEP1R1 / RFU, BIVM-ERCC5 /// ERCC5 / Fold change vs veh, BIVM-ERCC5 /// ERCC5 / RFU, ILF3 / Fold change vs veh, ILF3 / RFU 11762660_at / Fold change /veh 11762660_at / RFU VCAN (11757783_s_at) / Fold change /veh VCAN (11757783_s_at) / RFU DDX43 (11728927_at) / Fold change /veh DDX43 (11728927_at) / RFU KRT8 (11758188_x_at) / Fold change /veh KRT8 (11758188_x_at) / RFU NKD1 (11759106_at) / Fold change /veh NKD1 (11759106_at) / RFU SRD5A1 (11742802_a_at) / Fold change /veh SRD5A1 (11742802_a_at) / RFU TPSAB1 /// TPSB2 (11721975_s_at) / Fold change /veh TPSAB1 /// TPSB2 (11721975_s_at) / RFU GSTM3 (11746129_a_at) / Fold change /veh GSTM3 (11746129_a_at) / RFU IL23R (11737362_x_at) / Fold change /veh IL23R (11737362_x_at) / RFU TMEM51 (11727254_a_at) / Fold change /veh TMEM51 (11727254_a_at) / RFU PIWIL2 (11732686_x_at) / Fold change /veh PIWIL2 (11732686_x_at) / RFU ORM1 (11744905_x_at) / Fold change /veh ORM1 (11744905_x_at) / RFU CCDC152 (11743942_at) / Fold change /veh CCDC152 (11743942_at) / RFU ECM1 (11717891_a_at) / Fold change /veh ECM1 (11717891_a_at) / RFU IL23R (11748794_a_at) / Fold change /veh IL23R (11748794_a_at) / RFU TNFAIP8L3 (11732012_x_at) / Fold change /veh TNFAIP8L3 (11732012_x_at) / RFU MBOAT4 (11741988_at) / Fold change /veh MBOAT4 (11741988_at) / RFU 11764193_at / Fold change /veh 11764193_at / RFU TMEM53 (11763286_at) / Fold change /veh TMEM53 (11763286_at) / RFU MAGEB2 (11727129_at) / Fold change /veh MAGEB2 (11727129_at) / RFU TMEM200A (11744735_a_at) / Fold change /veh TMEM200A (11744735_a_at) / RFU CCDC152 (11751479_a_at) / Fold change /veh CCDC152 (11751479_a_at) / RFU FAM211A (11726209_a_at) / Fold change /veh FAM211A (11726209_a_at) / RFU RGS16 (11746705_a_at) / Fold change /veh RGS16 (11746705_a_at) / RFU VCAN (11755009_s_at) / Fold change /veh VCAN (11755009_s_at) / RFU RHOB (11743442_s_at) / Fold change /veh RHOB (11743442_s_at) / RFU RGS16 (11720943_a_at) / Fold change /veh RGS16 (11720943_a_at) / RFU RGS16 (11720944_at) / Fold change /veh RGS16 (11720944_at) / RFU, VPS4B / Fold change vs veh, VPS4B / RFU, CREB1 / Fold change vs veh, CREB1 / RFU, DNAJC13 / Fold change vs veh, DNAJC13 / RFU, GNAQ / Fold change vs veh, GNAQ / RFU, CDK5R1 / Fold change vs veh, CDK5R1 / RFU, ZRANB3 / Fold change vs veh, ZRANB3 / RFU, CUL4A / Fold change vs veh, CUL4A / RFU, CCNY / Fold change vs veh, CCNY / RFU, UFL1 / Fold change vs veh, UFL1 / RFU, COG3 / Fold change vs veh, COG3 / RFU, DIAPH2 / Fold change vs veh, DIAPH2 / RFU, SKA2 / Fold change vs veh, SKA2 / RFU, AFF3 / Fold change vs veh, AFF3 / RFU, LMF1 / Fold change vs veh, LMF1 / RFU, IPO11 / Fold change vs veh, IPO11 / RFU, DFFB / Fold change vs veh, DFFB / RFU, FOXP1 / Fold change vs veh, FOXP1 / RFU, CARD8 / Fold change vs veh, CARD8 / RFU, STRN3 / Fold change vs veh, STRN3 / RFU, ADK / Fold change vs veh, ADK / RFU, RASSF2 / Fold change vs veh, RASSF2 / RFU, WIPF1 / Fold change vs veh, WIPF1 / RFU, LARP1B / Fold change vs veh, LARP1B / RFU, RASA1 / Fold change vs veh, RASA1 / RFU, RB1 / Fold change vs veh, RB1 / RFU, PPFIA1 / Fold change vs veh, PPFIA1 / RFU, MAT2A / Fold change vs veh, MAT2A / RFU, CCT5 / Fold change vs veh, CCT5 / RFU, WDR92 / Fold change vs veh, WDR92 / RFU, CUX1 / Fold change vs veh, CUX1 / RFU, TTC7A / Fold change vs veh, TTC7A / RFU, TMEM135 / Fold change vs veh, TMEM135 / RFU, DEPTOR / Fold change vs veh, DEPTOR / RFU, CPM / Fold change vs veh, CPM / RFU, DNAJB6 / Fold change vs veh, DNAJB6 / RFU, CACNA2D3 / Fold change vs veh, CACNA2D3 / RFU, DTX4 / Fold change vs veh, DTX4 / RFU, TFCP2 / Fold change vs veh, TFCP2 / RFU, GMCL1 /// GMCL1P1 / Fold change vs veh, GMCL1 /// GMCL1P1 / RFU, AEBP2 / Fold change vs veh, AEBP2 / RFU, SNHG1 /// SNORD22 /// SNORD25 /// SNORD26 /// SNORD27 /// SNORD28 /// SNORD29 /// SNORD31 / Fold change vs veh, SNHG1 /// SNORD22 /// SNORD25 /// SNORD26 /// SNORD27 /// SNORD28 /// SNORD29 /// SNORD31 / Fold change (Aza/veh), C12orf56 (ProbeSet 11735607_a_at) / Fold change (ACY-1035/veh), C12orf56 (ProbeSet 11735607_a_at) / Fold change (Aza/veh), FGFR1OP (ProbeSet 11751329_s_at) / Fold change (ACY-1035/veh), FGFR1OP (ProbeSet 11751329_s_at) / Fold change (Aza/veh), VPS36 (ProbeSet 11739960_a_at) / Fold change (ACY-1035/veh), VPS36 (ProbeSet 11739960_a_at) / RFU SYPL1 (11715823_x_at) / Fold change /veh SYPL1 (11715823_x_at) / RFU IGFBP7 (11715501_s_at) / Fold change /veh IGFBP7 (11715501_s_at) / RFU REEP3 (11722064_at) / Fold change /veh REEP3 (11722064_at) / RFU IGLL1 (11728026_x_at) / Fold change /veh IGLL1 (11728026_x_at): dose or concentration left out as unconfirmed
Conditions: MV-4-11 cells, 48 hours

In the case of Nc1ncn([C@@H]2O[C@H](CO)[C@@H](O)[C@H]2O)c(=O)n1 [azacitidine], the “RFU WNT11 (11732464_a_at)” value is reported as 6.46 RFU.
